Values of other authors in patent US20050196418A1, “Bioavailability and improved delivery of alkaline pharmaceutical drugs” (priority 2004, published 2005).

Details: free base; due to air oxidation

## Clc1ccccc1C(c1ccccc1)(c1ccccc1)n1ccnc1 [Clotrimazole]
  chemical stability in a solution or formulation for shelf storage: chemically unstable
